These results are taken from patent publication US20240318145A1, “STRUCTURALLY COMPLETE ORGANOIDS” (Children's Hospital Medical Center, priority 2021, published 2024).

“Also recorded” adds a separate entry of the source.

Common to all, as to assay type: cell-based, human
One assay relates to ENS.
The next assay relates to muscarinic receptor. Nature of the assay: Ex vivo isometric force contraction of muscle strips from transplanted hAGO +SM +ENS in an organ bath.
The next assay deals with ENCCs. Nature of the assay: Expression of BMP ligands in ENCC culture (qRT-PCR). As to conditions: ENCC culture treated with NOG; FIG. 15B. How it is done: (§1) One candidate pathway was BMP signaling, which is known to promote posterior fate in the gastrointestinal junction. Analysis of ENCCs show high levels of expression of both BMP4 and BMP7 (FIG. 15A). To functionally investigate if BMP activity might mediate the ability of ENCCs to promote a Brunner's gland fate, ENCCs were recombined with hAGO at day 6 and then organoids were cultured with the BMP inhibitor Noggin (NOG) from day 6-9, along with RA, which is a component of the normal hAGO protocol. None of the grafts (0 out of 27) had Brunner's gland epithelium following 3 days of Noggin treatment as compared to hAGOs +ENCCs added at day 9 not treated with NOG (5 out of 21 grafts). […]
RNA isolation and quantitative real-time PCR (qRT-PCR): Spheroids and organoids were harvested in RAI Lysis Buffer and β-mercapethanol and stored at −80° C. until total RNA was isolated using NucleoSpin RNA Isolation Kit (Macherey-Nagel) according to manufacturers' instructions. Complementary DNA (cDNA) was reverse transcribed from 116 ng of RNA using a SuperScript VILO cDNA Synthesis Kit (Invitrogen). qRT-PCR was performed using a QuantiTect SYBR Green PCR Kit (Qiagen) in MicroAmp EnduraPlate Optical 96-Well Fast Reaction Plates (Applied Biosystems) and run on a QuantStudio 6 Real-Time PCR Detection System (Applied Biosystems). […]
In general terms: Real-time PCR tracks product formation cycle by cycle.

The next assay deals with hAGOs +ENCCs. Briefly: Brunner's gland epithelium in grafts of hAGOs recombined with ENCCs and transplanted into mice. Conditions: ENCCs recombined at day 6, Noggin day 6-9 (3 days) along with RA; compared with 5 out of 21 grafts not treated. How it is done: as §1
Recombination and additional spheroid patterning: Single cell suspensions of mesenchymal cells and ENCCs were counted and added to foregut spheroids at an approximate ratio of 1,000 ENCCs and 2,500 mesenchyme cells per spheroid. […]
In vivo transplantation of hAGOs and hFGOs: hAGO, hFGO, hAGO +ENS, hAGO +SM +ENS, hAGO +SM +ENS, and hFGO +SM +ENS were all ectopically transplanted into the kidney capsule of NSG mice. […] Engrafted organoids were harvested 6-15 weeks after transplantation and analyzed for neuroglial, epithelial, and mesenchymal maturation.

With `NC1=N[C@H](O)[C@H]2[C@H]3O[C@]4(O)O[C@@H]([C@@H](O)[C@@]2(N1)[C@@H]4O)[C@]3(O)CO` [tetrodotoxin], the “EFS-stimulated contractile activity (change in AUC)” value with ENS is recorded as “abolished the ability of EFS to stimulate contractile activity; also recorded: abrogating EFS-mediated contractions”.
Consider `CN1[C@@H]2C[C@@H](OC(=O)[C@H](CO)c3ccccc3)C[C@H]1[C@@H]1O[C@@H]12` [scopolamine], for which the “reversal of contractions / muscle relaxation” value with muscarinic receptor is “contractions were able to be reversed and muscle relaxation induced”.
In the case of `CC(C[N+](C)(C)C)OC(N)=O` (stereo not drawn) [bethanechol, Carbamyl-β-methylcholine chloride], the “contractility (smooth muscle force contraction), dose response” value in the assay with muscarinic receptor (1 nM to 10 mM at 2 min intervals, tissue strips of transplanted hAGO +SM +ENS, FIG. 4C) is “increased in response to bethanechol in a dose-dependent manner”. Moreover, the “normalized mean maximal tension” value with muscarinic receptor (bethanechol dose response before scopolamine, normalized to muscle strip mass, n=3, FIG. 4D) is given as 236.9 g/g.

B1: Noggin: BMP inhibitor Noggin (NOG) (protein, UniProt Q13253 28-232, looked up)
Noggin: QHYLHIRPAPSDNLPLVDLIEHPDPIFDPKEKDLNETLLRSLLGGHYDPGFMATSPPEDRPGGGGGAAGGAEDLAELDQLLRQRPSGAMPSEIKGLEFSEGLAQGKKQRLSKKLRRKLQMWLWSQTFCPVLYAWNDLGSRFWPRYVKVGSCFSKRSCSVPEGMVCKPSKSVHLTVLRWRCQRRGGQRCGWIPIQYPIISECKCSC
As for B1, the “levels of BMP4 and BMP7 expression” value in the assay with ENCCs was “significantly reduced levels of both BMP4 and 7”. For the same molecule, in the assay on hAGOs +ENCCs, the “grafts with Brunner's gland epithelium” value is 0 out of 27.
